Data on 1 compound can be found in US20020132813A1, “Heterocyclylalkylazole derivatives and their use as pesticides” (priority 2000, published 2002).

Test [1] has as its system black bean aphids (Aphis fabae). In words: Black bean aphid test: plants and aphids immersed in solution of the formulated preparation. Type of test: in vivo. The conditions noted are these: read-out: mortality of the aphids. As to the method: Pregerminated field bean seeds (Vicia faba) with seminal roots were transferred into amber glass bottles filled with tap water and then populated with approximately 100 black bean aphids (Aphis fabae). The plants and aphids were then immersed for 5 seconds in an aqueous solution of the formulated preparation to be tested. After the solution had been allowed to run off, the plants and animals were stored in a controlled-environment cabinet (16 hours light/day, 25° C., 40-60% atmospheric humidity). After storage for 3 and 6 days, the effect of the preparation on the aphids was determined.

Test [2] shares this test system. The experiment in a line: Black bean aphid root-systemic test: solution pipetted into the bottle holding the field bean roots. It is filed as in vivo. The note with it: read-out: mortality of the aphids owing to the root-systemic activity. As to the method:
Pregerminated field bean seeds (Vicia faba) with seminal roots were transferred into amber glass bottles filled with tap water. Four milliliters of an aqueous solution of the formulated preparation to be tested were pipetted into the amber glass bottle. Then, the field bean was infested with approx. 100 black bean aphids (Aphis fabae). The plant and animals were then stored in a controlled-environment cabinet (16 hours light/day, 25° C., 40-60% atmospheric humidity). After storage for 3 and 6 days, the root-systemic action of the preparation on the aphids was determined. At a concentration of 300 ppm (based on active substance content), the preparations of Examples No. 1, 8, 20, 28, 30, 34, 36, 40, 52, 54, 56, 58, 118, 138, 146, 148, 154, 158, 176, 184, 368, 369, 370 caused 90-100% mortality of the aphids owing to the root-systemic activity.

A word on the mortality: it is the share of the test organisms that died. For `FC(F)(F)c1ccncc1-c1nc(CC2OCCCO2)no1` [Example 8, 3-(1,3-Dioxan-2-ylmethyl)-5-(4-trifluoromethyl-3-pyridyl)-1,2,4-oxadiazole], the mortality at 300 ppm in test [1] and in test [2] was 90 to 100% each time.
